Assay results taken from US4666924A, “Certain pyridyl substituted aminomethyl benzene derivatives having anti-arrhythmic activity” (priority 1984, dated 1987).
Like-named read-outs stand apart in the source and are kept apart here.

Experiments:
[1] = tested on: guinea pig ileum; test: In vitro anticholinergic activity in the isolated guinea pig ileum (field stimulation); assay type: cell-based, male Hartley guinea pigs; settings: for inhibition at 4 µg/mL: Cavia porcellus, read-out: Anticholinergic Inhibition of Guinea Pig Ileum
Protocol: The following examples describe the in vitro evaluation of anticholinergic activity in the isolated guinea pig ileum. Fasted, male Hartley guinea pigs (300-400 g) were killed by a blow to the head. […] One end of the ileal strip was impaled onto a platinum wire electrode; and the other end was tied to a stationary glass rod. Basal tension was set at 0.1-0.3 g and peak developed tension in response to field stimulation (100-150 V, 10 msec pulse duration, 0.2 Hz) was measured with a tension transducer.

[2] = tested on: Harris dog (ventricular arrhythmias); test: Antiarrhythmic activity by coronary ligation in the Harris dog model; assay type: in vivo, adult mongrel dogs; settings: for minimal effective dose: Canis lupus familiaris, 5 min, read-out: Antiarrhythmic ED in Harris Dog (effective dose required to sustain normal sinus rhythm)
Text: The following examples describe the pharmacological evaluation of the compounds made in accordance with the present invention. In particular, these examples describe the evaluation of antiarrhythmic activity by coronary ligation in the well known Harris dog model. Ventricular arrhythmias were induced in adult mongrel dogs (10-15 kg) of either sex by two-state ligation of the left anterior descending coronary artery. […] The test compound in saline was infused intravenously at a cumulative rate of 0.3 mg/kg/min (base) until normal sinus rhythm or toxicity occurred. Normal sinus rhythm was defined as 90-100% normal complexes over a 5 min period.

[3] = tested on: cardiac cells; settings: cited from earlier work; for effects on impulse formation, conduction velocity and refractory period: cardiac cells
[4] = tested on: vagal stimulation of the heart and peripheral parasympathetic stimulation; settings: cited from earlier work
[5] = tested on: patients; settings: cited from earlier work
[6] = at 4 mg/L, field stimulation 100-150 V, 10 msec, 0.2 Hz
[7] = IV infusion in saline, cumulative rate 0.3 mg/kg/min (base), day after two-stage ligation of left anterior descending coronary artery, normal sinus rhythm = 90-100% normal complexes over 5 min
[8] = patients, management of arrhythmias

Row | Structure (SMILES) | inhibition at 4 µg/mL [1, 6] [%] | minimal effective dose [2, 7] [mg/kg] | other results
1 | Clc1nnc(Nc2cc(CN3CCCC3)cc(CN3CCCC3)c2)c2ccccc12 [XXI] | 93 | 3 | –
2 | Oc1c(CN2CCCC2)cc(Nc2ccncc2)cc1CN1CCCC1 [XX] | 5 | 8 | –
3 | Nc1cc(CN2CCCC2)c(O)c(CN2CCCC2)c1 [Example I, 3,5-bis(N-pyrrolidinylmethyl)-4-hydroxyaniline] | 3 | – | Antiarrhythmic ED in Harris Dog (effective dose required to sustain normal sinus rhythm) [2, 7]: inactive
4 | C=C[C@H]1C[N@@]2CC[C@H]1C[C@@H]2[C@@H](O)c1ccnc2ccc(OC)cc12 (stereo in doubt) [Quinidine, 6-methoxy-α-(5'-vinyl-2-quinuclidinyl)-4-quindinemethanol] | 62 | 10.1 | effects on impulse formation, conduction velocity and refractory period [3]: depress impulse formation, slow conduction velocity, and increase the duration of the refractory period of cardiac cells; anticholinergic action [4]: indirect anticholinergic actions; adverse side-effects ([5]; human, in vivo): cardiotoxicity, diarrhea, nausea, vomiting, fever, hypertension and depression of myocardial contractility
5 | CN(C)Cc1cc(Nc2nncc3ccccc23)cc(CN(C)C)c1O [IX] | 14 | 14 | –
6 | Oc1c(CN2CCCC2)cc(Nc2nncc3ccccc23)cc1CN1CCCC1 [Example IV, 1[3',5'-bis[N-pyrrolidinylmethyl]-4'-hydroxyanilino]-phthalazine] | 83 | 1.5 | –
7 | COc1nnc(Nc2cc(CN3CCCC3)c(O)c(CN3CCCC3)c2)c2ccccc12 [VII, 1-N-[3',5'-bis(pyrrolidinylmethyl)-4'-hydroxyanilino]-4-methoxyphthalazine] | 84 | – | Antiarrhythmic ED in Harris Dog (effective dose required to sustain normal sinus rhythm) [2, 7]: low activity
8 | Oc1ccc(Nc2ncnc3ccccc23)cc1 [Example II, 4-(4'-hydroxyanilino)-quinazoline] | 13 | – | Antiarrhythmic ED in Harris Dog (effective dose required to sustain normal sinus rhythm) [2, 7]: inactive
9 | Oc1c(CN2CCCC2)cc(Nc2ccc3ccccc3n2)cc1CN1CCCC1 [Example XVII, 2-[3',5'-bis(N-pyrrolidinylmethyl)-4'-hydroxyanilino]-quinoline] | 50 | 6 | –
10 | CC(C)N(CCC(C(N)=O)(c1ccccc1)c1ccccn1)C(C)C (stereo not drawn) [Disopyramide, α[2-(diisopropylamino)-ethyl]α-phenol-2-pyridineacetamide] | – | – | inhibition at 4 µg/mL [1]: 81%; effects on impulse formation, conduction velocity and refractory period [3]: depress impulse formation, slow conduction velocity, and increase the duration of the refractory period of cardiac cells; anticholinergic action [4]: indirect anticholinergic actions; minimal effective dose ([2]; iv): 6.8 mg/kg; adverse side-effects [5, 8]: dryness of the mouth, blurred vision, constipation, and urinary retention, and depression of myocardial contractility
11 | Oc1c(CN2CCCC2)cc(Nc2nnc(Cl)c3ccccc23)cc1CN1CCCC1 [Example V, 1-N-[3',5'-bis(N-pyrrolidinylmethyl)-4'-hydroxyanilino]-4-chlorophthalazine] | 76 | 2.5 | –
12 | Oc1c(CN2CCCC2)cc(Nc2ccc(Cl)nn2)cc1CN1CCCC1 [Example X, 3-N-[3',5'-bis(N-pyrrolidinylmethyl)-4'-hydroxyanilino]-6-chloropyridazine] | 40 | 10.5 | –
13 | Oc1c(CN2CCCC2)cc(CNc2nnc(Cl)c3ccccc23)cc1CN1CCCC1 [XIX, 1-N-[3',5'-bis(N-pyrrolidinylmethyl)-4'-hydroxybenzylamino]-4-chlorophthalazine] | 78 | 4.5 | –
14 | COc1cc2c(Nc3cc(CN4CCCC4)c(O)c(CN4CCCC4)c3)ncnc2c(OC)c1OC [XII, 4-[3',5'-bis(pyrrolidinylmethyl)-4'-hydroxyanilino]-6,7,8-trimethoxyquinazoline] | 14 | – | –
15 | Oc1ccc(Nc2ccc3ccccc3n2)cc1CN1CCCC1 [XVIII, 2-[3'-(N-pyrrolidinylmethyl)-4'-hydroxyanilino]-quinoline] | 72 | 11 | –
16 | Oc1c(CN2CCCC2)cc(Nc2ncccn2)cc1CN1CCCC1 [Example XI, 2-N-[3',5'-bis(pyrrolidinylmethyl)-4'-hydroxyanilino]-pyrimidine] | 6 | – | Antiarrhythmic ED in Harris Dog (effective dose required to sustain normal sinus rhythm) [2, 7]: low activity
17 | Cc1cc(Nc2cc(CN3CCCC3)c(O)c(CN3CCCC3)c2)c2ccccc2n1 [Example XIV, 2-methyl-4-[3',5'-bis(N-pyrrolidinylmethyl)]-4'-hydroxyanilinoquinoline] | – | 9.5 | –
18 | Oc1c(CN2CCCC2)cc(Nc2nccc3ccccc23)cc1CN1CCCC1 [VIII, 1-N-[3',5'-bis(pyrrolidinylmethyl)-4'-hydroxyanilino]-isoquinoline] | – | 1.1 | Anticholinergic Inhibition of Guinea Pig Ileum [1, 6]: active
19 | Oc1c(CN2CCCC2)cc(Nc2ccnc3cc(C(F)(F)F)ccc23)cc1CN1CCCC1 [XIII, 4-[3',5'-bis(N-pyrrolidinylmethyl)-4'-hydroxyanilino]-7-trifluoromethylquinoline] | 36 | 3 | –
20 | Oc1c(CN2CCCC2)cc(Nc2ncnc3ccccc23)cc1CN1CCCC1 [Changrolin, 4-[3',5'-bis[N-pyrolidinylmethyl]-4'-hydroxyanilino]-quinazoline] | 43 | 10.3 | antiarrhythmic effectiveness of known agent ([3]; background statement): effective antiarrhythmic agent; anticholinergic action [4]: substantial anticholinergic activity; adverse side-effects [5, 8]: skin discoloration in some patients
21 | Oc1c(CN2CCCC2)cc(Nc2ccnc3cc(Cl)ccc23)cc1CN1CCCC1 [Example XV, 4-[3',5'-bis(N-pyrrolidinylmethyl)-4'-hydroxyanilino]-7-chloroquinoline] | 27 | – | Antiarrhythmic ED in Harris Dog (effective dose required to sustain normal sinus rhythm) [2, 7]: low activity
22 | Oc1c(CN2CCCC2)cc(Nc2ccnc3ccccc23)cc1CN1CCCC1 [Example XVI, 4-[3',5'-bis(N-pyrrolidinylmethyl)-4'-hydroxyanilino]-quinoline] | 19 | – | Antiarrhythmic ED in Harris Dog (effective dose required to sustain normal sinus rhythm) [2, 7]: low activity
23 | Oc1ccc(Nc2nnc(Cl)c3ccccc23)cc1CN1CCCC1 [VI, 1-N-[3'-N-pyrrolidinylmethyl-4'-hydroxyanilino]-4-chlorophthalazine] | 65 | 17 | –
24 | Oc1ccc(Nc2nncc3ccccc23)cc1 [Example III, 1-(4'-hydroxyanilino)phthalazine] | 23 | – | Antiarrhythmic ED in Harris Dog (effective dose required to sustain normal sinus rhythm) [2, 7]: inactive
